The values below come from paper PMC8308830, “Single-Agent and Fixed-Dose Combination HIV-1 Protease Inhibitor Drugs in Fission Yeast (Schizosaccharomyces pombe)” (Pathogens, 2021).

Entries after “also recorded” stand apart in the source; their conditions may differ.

The test system of one assay is HIV. The conditions noted are these: human cells, antiviral activity; per-drug references in Table 2; read-out: EC50 in Human Cell; cited from earlier work.
In assay [1] the target is T1, HIV-1 PR (Human immunodeficiency virus type 1 group M subtype B, UniProt P12497). Kind of assay: cell-based. The following applies: for EC50: PR-on RE294 cells, growth (OD650) at 72 h post-gene induction relative to PR-off cells; for decrease of EC50 of formulated drug in comparison with pure compound: fission yeast RE294, formulated drug pill vs pure compound. As to the method: The goal of this experiment was to determine the potency of each PI drug in fission yeast by the determination of EC50. […] Briefly, both HIV-1 PR-suppressing (PR-off) and PR-producing (PR-on) RE294 cells were prepared as described above. The PR-producing cells were added with a PI drug in the final concentration as indicated. Final cellular growth was measured at 72 h post-gene induction.
(A) Pure compound of PI drugs. (B) Formulated PI drug pills. HIV-1 PR gene expression was induced in RE294 cells, as described in Figure 2. […] Cellular growth was measured at 72 h post-gene induction by optical density of 650 nm using a spectrophotometer. EC50 curves were generated by using Prism 8 software showing averages with standard error bars. The measurements were repeated with three different experiments.
Briefly, both HIV-1 PR-suppressing (PR-off) or PR-producing (PR-on) RE294 cells were prepared as described above as control and for testing. The PR-producing cells were added with a PI drug in the final concentration as shown. Final cellular growth was measured at 72 h post-gene induction by optical density of 650 nm using a spectrophotometer.

Assay [2] concerns the target T1, HIV-1 PR. Put plainly: Fission yeast colony formation assay, wild-type HIV-1 PR (RE294 strain). The conditions noted are these: 150 μM drug; PR-on RE294 cells; 4–5 days at 30 °C; pure chemical forms and formulated drug pills. Also on record: HIV-1 PR is a dimeric aspartyl protease that consists of two identical subunits with 99 amino acids; expressed in transfected cells; host or cells: Schizosaccharomyces pombe strain RE294. It counts as cell-based. The procedure: The effect of the above-mentioned FDA-approved PI drugs on fission yeast colony formation was tested in the presence and absence of HIV-1 PR. Specifically, a fission yeast RE294 strain, which carries a single and integrated copy of HIV-1 PR gene in the yeast chromosome, was used in this experiment. One thousand active growing and log-phase RE294 cells were evenly spread and cultured on the six-well agar wells containing the minimal and selective PMG medium in presence of 20 µM of thiamine (PR-off) or absence of thiamine (PR-on) with incubation at 30 °C for 4–5 days. […] To test the effect of a PI drug on the colony formation, 150 μM of each drug was added to the respective agar well in the presence of HIV-1 PR. Since all those drugs were dissolved in dimethyl sulfoxide (DMSO), to test the potential DMSO effect on the yeast colony formation, DMSO in the final concentration of 1% was added to the PR-on well as a mock control (Figure 2A). […]
A modified fission yeast colony-formation assay was used to investigate the effect of the PR gene expression on fission yeast cell proliferation from previously described protocol. […] The inhibitory effect of each FDA PI drug on yeast colony formation was evaluated 4–5 days after plating by comparing the growth of the colonies of the drug-treated wells to that of the mock DMSO controls.

Assay [3] has as its target T1, HIV-1 PR. It counts as cell-based. Also on record: HIV-1 PR is a dimeric aspartyl protease that consists of two identical subunits with 99 amino acids; expressed in transfected cells; host or cells: Schizosaccharomyces pombe strain RE294. The conditions noted are these: 150 μM drug; PR-on RE294 cells; OD650 over 72 h; formulated single-agent and combination drugs.
In assay [4] the target is T1, HIV-1 PR. The following applies: 150 μM drug; G31 cells; 20 h post-gene induction.
The mark [5] stands for this setting: EC50 in Fission Yeast /Pure Compound, pure compound.
Where [6] appears, read: EC50 in Fission Yeast /Drug Formulation, compounds in drug pill forms.

Turning to `CCC[C@@]1(CCc2ccccc2)CC(O)=C([C@H](CC)c2cccc(NS(=O)(=O)c3ccc(C(F)(F)F)cn3)c2)C(=O)O1` [TPV, Tipranavir], the EC50 (commonly the concentration that produces a half-maximal response) in the assay with HIV is 30 to 70 nM; at HIV-1 PR [1] (setting [5]) it was 7.06 ± 0.32 µM.

Consider `CC(C)(C)NC(=O)[C@@H]1CN(Cc2cccnc2)CCN1C[C@@H](O)C[C@@H](Cc1ccccc1)C(=O)N[C@H]1c2ccccc2C[C@H]1O` [IDV, Indinavir], for which, in the assay with HIV, the EC50 is 5 to 30 nM.

Turning to `COC(=O)N[C@H](C(=O)N[C@@H](Cc1ccccc1)[C@@H](O)CN(Cc1ccc(-c2ccccn2)cc1)NC(=O)[C@@H](NC(=O)OC)C(C)(C)C)C(C)(C)C` [ATV, Atazanavir], the EC50 in the assay on HIV was 2 to 5 nM; at HIV-1 PR [1] (setting [6]) it was 16.3 ± 0.95 µM; at HIV-1 PR [1] (setting [5]) it was 21.08 ± 0.07 µM. For the same compound, the “decrease of EC50 of formulated drug in comparison with pure compound” value (shortened to “decrease of EC50 of formulated drug”) at HIV-1 PR [1] stood at 22.5%.

For the compound `CC(C)c1nc(CN(C)C(=O)N[C@H](C(=O)N[C@@H](Cc2ccccc2)C[C@H](O)[C@H](Cc2ccccc2)NC(=O)OCc2cncs2)C(C)C)cs1` [RTV, Ritonavir], the EC50 in the assay with HIV is 40 to 100 nM. The “decrease of EC50 of formulated drug” value on HIV-1 PR [1] stood at 38.9%.

Take `CC(C)CN(C[C@@H](OP(=O)(O)O)[C@H](Cc1ccccc1)NC(=O)O[C@H]1CCOC1)S(=O)(=O)c1ccc(N)cc1` [FPV, Fosamprenavir]: on HIV-1 PR [2], the “suppression of the inhibitory effect of HIV-1 PR on colony formation” value was “did not suppress”. In addition, the “suppression of HIV-1 PR-induced growth arrest, formulated drug pills” value on HIV-1 PR [3] is given as “did not suppress”. For the same compound, the “inhibition of HIV-1 PR proteolytic cleavage of GFP-MA↓CA-Vpr (Vpr pattern vs GFP pattern)” value against HIV-1 PR [4] was “no suppression”. The EC50 at HIV-1 PR [1] (setting [6]) is more than 150 µM. Besides, on HIV-1 PR [1] (wild-type PR, fission yeast), the “inhibitory activity against the HIV-1 PR in fission yeast” value was “no inhibitory activity; also recorded: did not show any inhibitory effect”.

For `CC(C)(C)NC(=O)[C@@H]1C[C@@H]2CCCC[C@@H]2CN1C[C@@H](O)[C@H](Cc1ccccc1)NC(=O)[C@H](CC(N)=O)NC(=O)c1ccc2ccccc2n1` [SQV, Saquinavir], in the assay on HIV, the EC50 was 5 to 25 nM.

Turning to `CC(C)CN(C[C@@H](O)[C@H](Cc1ccccc1)NC(=O)O[C@H]1CO[C@H]2OCC[C@H]21)S(=O)(=O)c1ccc(N)cc1` [DRV, Darunavir], the EC50 in the assay with HIV was 1 to 10 nM. For the same compound, the “decrease of EC50 of formulated drug” value on HIV-1 PR [1] is 28.5%.

With `CC(C)CN(C[C@@H](O)[C@H](Cc1ccccc1)NC(=O)O[C@H]1CCOC1)S(=O)(=O)c1ccc(N)cc1` [APV, Amprenavir], the EC50 was 15 to 60 nM in the assay with HIV and 55.4 ± 3.18 µM at HIV-1 PR [1] (setting [5]).

Consider `Cc1cccc(C)c1OCC(=O)N[C@@H](Cc1ccccc1)[C@@H](O)C[C@H](Cc1ccccc1)NC(=O)[C@H](C(C)C)N1CCCNC1=O` [LPV, Lopinavir], for which, in the assay on HIV, the EC50 is 4 to 11 nM.

For the compound `Cc1c(O)cccc1C(=O)N[C@@H](CSc1ccccc1)[C@H](O)CN1C[C@H]2CCCC[C@H]2C[C@H]1C(=O)NC(C)(C)C` [NFV, Nelfinavir], the EC50 is 3 to 40 nM in the assay with HIV and 9.7 ± 0.34 µM at HIV-1 PR [1] (setting [5]).
